Measurements as given in the supplement of paper PMC4862054.
Several values for one entry are separate records, joined by “and”; a condition that tells them apart may be missing. Equal entries are not always repeated.

How the values were obtained:
Settings in all cases: incubation time: 72 h
CAL-148 = assay: drug sensitivity score (DSS), CellTiter-Glo (DSS (AUC-based score)); higher = stronger drug effect (viability inhibition or cytotoxicity); extreme values may be limits of the assay
Summary of the method: (§1)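 Using 20 µl of cell suspension per well, breast cancer cell lines were seeded into 384-well plates pre-loaded with compound at 5 concentrations in 10-fold steps across a compound-specific 10,000-fold range. Incubation lasted 72 h, after which CellTox Green fluorescence at 485/520 nm and then CellTiter-Glo luminescence, following 10 min at room temperature, were recorded. Each plate was normalised to 0.1 % DMSO and a positive kill control before the drug sensitivity score was derived from the area under the fitted dose-response curve.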

CAL-85-1 [1] = assay: as above
Summary of the method: as §1

MDA-MB-231 = assay: as above
Summary of the method: as §1

DU-4475 = assay: as above
Summary of the method: as §1

CAL-120 = assay: as above
Summary of the method: as §1

HCC1599 [2] = assay: as above
Summary of the method: as §1

MDA-MB-436 [3] = assay: as above
Summary of the method: as §1

HCC1937 [4] = assay: as above
Summary of the method: as §1

SK-BR-3 [5] = assay: as above
Summary of the method: as §1

Hs578T = assay: as above
Summary of the method: as §1

MFM-223 = assay: as above
Summary of the method: as §1

MDA-MB-453 = assay: as above
Summary of the method: as §1

BT-549 = assay: as above
Summary of the method: as §1

BT-474 [6] = assay: as above
Summary of the method: as §1

HDQ-P1 [7] = assay: as above
Summary of the method: as §1

CAL-51 [8] = assay: as above
Summary of the method: as §1

CAL-85-1 [9] = assay: normalised viability (% of control), CellTiter-Blue; higher = more viable cells (about 100 = DMSO control)
Summary of the method: (§2)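 After 72 h on compound-loaded 384-well plates, breast cancer cell lines received 2.5 µl CellTiter-Blue reagent for 2 h at 37 °C. Fluorescence at 560/590 nm was scaled per plate so that vehicle was 100 and a positive kill control was 0. The value stands for normalised viability at a single listed concentration of the series.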

HCC1599 [10] = assay: as above
Summary of the method: as §2

MDA-MB-436 [11] = assay: as above
Summary of the method: as §2

HCC1937 [12] = assay: as above
Summary of the method: as §2

SK-BR-3 [13] = assay: as above
Summary of the method: as §2

HCC1143 = assay: as above
Summary of the method: as §2

BT-474 [14] = assay: as above
Summary of the method: as §2

HDQ-P1 [15] = assay: as above
Summary of the method: as §2

CAL-51 [16] = assay: as above
Summary of the method: as §2

Cn1cc(C2=C(c3cn(C4CCN(Cc5ccccn5)CC4)c4ccccc34)C(=O)NC2=O)c2ccccc21 [Enzastaurin]
Settings | drug sensitivity score
BT-474 [6] | 0
BT-549 | 0
CAL-51 [8] | 0
CAL-85-1 [1] | 0
CAL-120 | 0
CAL-148 | 0
DU-4475 | 0
HCC1599 [2] | 0
HCC1937 [4] | 0
HDQ-P1 [7] | 0
Hs578T | 0
MDA-MB-231 | 0
MDA-MB-436 [3] | 0
MDA-MB-453 | 0
MFM-223 | 0
SK-BR-3 [5] | 0

normalised viability [%]
Settings | BT-474 [14] | CAL-51 [16] | CAL-85-1 [9] | HCC1143 | HCC1599 [10] | HCC1937 [12] | HDQ-P1 [15] | MDA-MB-436 [11] | SK-BR-3 [13]
3 nM | – | 117 | 85.1 | – | – | – | 113 | – | –
10 nM | 104 | – | – | 76.8 | 101 | 91.1 | – | 127 | 99.8
30 nM | – | 111 | 93.4 | – | – | – | 107 | – | –
100 nM | – | 107 | 85.4 | – | – | – | 89.3 | – | –
1000 nM | 92.7 | – | – | 64.8 | 93.2 | 75.6 | – | 56.1 | 63.4
10000 nM | 67 | – | – | 61.5 | 82.4 | 48.9 | – | 57.8 | 37

Cc1cn(-c2cc(NC(=O)c3ccc(C)c(Nc4nccc(-c5cccnc5)n4)c3)cc(C(F)(F)F)c2)cn1 [Nilotinib]
Settings | drug sensitivity score
BT-474 [6] | 0
BT-549 | 1.04
CAL-51 [8] | 6.22
CAL-85-1 [1] | 0
CAL-120 | 0
CAL-148 | 0
DU-4475 | 0
HCC1599 [2] | 0
HCC1937 [4] | 0
HDQ-P1 [7] | 0
Hs578T | 0
MDA-MB-231 | 0
MDA-MB-436 [3] | 0
MDA-MB-453 | 0
MFM-223 | 0
SK-BR-3 [5] | 0

Settings | normalised viability
BT-474 [14], 10 nM | 107% and 99.8%
BT-474 [14], 1000 nM | 93.9% and 106%
BT-474 [14], 10000 nM | 92.1% and 103%
CAL-51 [16], 3 nM | 107% and 112%
CAL-51 [16], 30 nM | 108% and 106%
CAL-51 [16], 100 nM | 101% and 111%
CAL-85-1 [9], 3 nM | 87% and 87.5%
CAL-85-1 [9], 30 nM | 81.8% and 80.2%
CAL-85-1 [9], 100 nM | 85.7% and 90.7%
HCC1143, 10 nM | 70.6% and 81.2%
HCC1143, 1000 nM | 98.7% and 101%
HCC1143, 10000 nM | 65% and 65.2%
HCC1599 [10], 10 nM | 93.3% and 95.8%
HCC1937 [12], 10 nM | 86% and 80.5%
HCC1937 [12], 1000 nM | 69.4%
HCC1937 [12], 10000 nM | 71.9% and 73.7%
HDQ-P1 [15], 3 nM | 92.5% and 86.2%
HDQ-P1 [15], 30 nM | 87.3% and 81.5%
HDQ-P1 [15], 100 nM | 95.3% and 83.1%
MDA-MB-436 [11], 10 nM | 98.2% and 88.3%
MDA-MB-436 [11], 1000 nM | 75.7% and 76.8%
MDA-MB-436 [11], 10000 nM | 92.5% and 75.2%
SK-BR-3 [13], 10 nM | 104% and 94.5%
SK-BR-3 [13], 1000 nM | 100% and 96.5%
SK-BR-3 [13], 10000 nM | 90.4% and 94.3%
